Like-named read-outs stand apart in the source and are kept apart here.
Columns and labels:
[1] = Bidirectional permeability in Caco-2 cells in absence and presence of SCE; assay type: in vitro ADME, human; details: human, 10 µM compound; for Papp A→B at 2 h, 10 µM: apical to basolateral; for Papp B→A at 2 h, 10 µM: basolateral to apical; for efflux ratio at 2 h, 10 µM: read-out: Efflux ratio (ER) (Papp B-A/Papp A-B)
Procedure: (§1) Caco-2 cells were seeded at a density of 2 × 10^4 on Transwell supports (0.4 µm pore polycarbonate membrane, 6.5 mm) and incubated overnight in a controlled atmosphere of 37 °C and 5% of CO2. The following day, the medium was changed to remove floating cells and fresh pre-warmed DMEM 20% was added (300 µL in the apical compartment and 1200 µL in the basal one). Cells were cultured for approximately 18–21 days in order to ensure that the cellular monolayers differentiated and many transport proteins and brush border hydrolases were expressed. Media were changed every 2–3 days.
(§2) For permeability studies, stock solutions of compounds were prepared by solubilizing 1.0 mg of accurately weighed powder with dimethyl sulfoxide (DMSO) and conserved at −20 °C. Immediately prior to the experiments, working solutions (WS) were prepared by diluting the stock solutions with pre-warmed HBSS to the final concentration of 10 µM. The final concentration of DMSO used never exceeded 0.1% v/v. The assays were performed in both the absorptive (from apical-to-basolateral compartment (A-B)) and the secretory direction (from basolateral-to-apical compartment (B-A)), both in the absence (Free) and presence of sweet cherry extract (+SCE [1 mg/mL]) diluted in HBSS. The final volumes used for the experiment were 300 µL in the apical compartment and 1200 µL in the basolateral one. Plates were incubated at 37 °C and maintained under gentle shaking (500 rpm) to reduce the effect of the unstirred water layer. At selected time points (T0–0.25–0.5–1–2 h-TEND for the A-B studies; T0–2 h–TEND for the B-A studies), samples (200 µL) were collected from the receiving compartments (from the basolateral compartment for the A-B assay; from the apical one for the B-A study) and replaced with the same volume of HBSS. The HPLC-UV/MS method was developed to quantify the amount of drug transferred across the cellular monolayer, and permeability (Papp, 10^−6 cm/s) and efflux ratio (ER) were calculated according to the following equations:Papp = (dQ/dt) × 1/(A × C0)(5) where dQ/dt is the steady-state flux (µmol s^−1), A is the area of the filter (cm^2), and C0 is the initial concentration in the donor compartment (µM). ER = (Papp B-A)/(Papp A-B)(6)
(§3) Chromatographic analyses were carried out using an Agilent 1260 Infinity HPLC-DAD system connected to an Agilent MSD 6130 system (Agilent Technologies, Palo Alto, CA, USA). At room temperature, a Kinetex C18-100 Å column (150 mm 4.6 mm, purchased from Phenomenex, Torrance, CA, USA) with a 5 µm particle size and gradient elution with a binary solution (eluent A: H2O, eluent B: ACN, both acidified with 0.1% v/v formic acid) was for the chromatographic separation. Analyses started with 5% B (from t = 0 to t = 1 min), then increased to 95% (from t = 1 to t = 10 min), then maintained at 95% (from t = 10 to t = 15 min), and finally returned to […] in 1.0 min. The volume injected was 10 µL, and the flow rate 600 µL/min. UV detection was monitored at 254 nm, and spectra were collected in both the positive and negative modes within the scan range of m/z 100–1500.

Caco-2 monolayer = test: as above; assay type: in vitro ADME, human; details: for Change of Papp A-B in presence of SCE vs Free / Change of Papp B-A in presence of SCE vs Free / Change of efflux ratio in presence of SCE vs Free: +SCE 1 mg/mL vs Free
Procedure: as §1, §2, §3

[2] = previously published; cited from earlier work
[3] = human liver microsomes; previously published; cited from earlier work
[4] = Cell viability assay (MTT) on Caco-2 cells; assay type: cell-based, human; details: human, Caco-2 cells, 2 h + 24 h fresh medium
Procedure: (§4) Cells were sub-cultured using a 1× trypsin/EDTA solution and then passed every 3–4 days at appropriate ratios (typically 1:3, 1:6, 1:12). […] After 2 h of treatment, solutions were aspirated from the wells, and the cells were washed with pre-warmed PBS. […] Furthermore, it was mandatory to identify the most suitable drug concentration that would avoid cytotoxic effects on Caco-2 cells (a condition that may bias the permeability study) and that would allow the optimal chromatographic response when analyzing the samples obtained. Therefore, cells were exposed to increasing concentrations of drugs (1–10–100 µM) for 2 h. […] In order to fully reproduce the conditions of the permeability studies and assess the possible induction of irreversible cytotoxic effects by SCE or drugs, cell viability was also checked after a further 24 h of incubation in free medium (2 h + 24 h). Cell viability was assessed as above described.

Caco-2 cells = test: Cell viability assay (MTT) on Caco-2 cells; assay type: cell-based, human; details: 2 h
Procedure: as §4

[5] = parameters: method as in earlier work; details: in humans; EMA reports; cited from earlier work
[6] = known from the literature; cited from earlier work
[7] = known from literature; cited from earlier work

Row | Structure (SMILES) | Papp A→B at 2 h, 10 µM ([1]; Caco-2, +SCE [1 mg/mL]) | Papp B→A at 2 h, 10 µM ([1]; Caco-2, +SCE [1 mg/mL]) | efflux ratio at 2 h, 10 µM ([1]; Caco-2, +SCE [1 mg/mL]) | Papp A→B at 2 h, 10 µM ([1]; Caco-2, Free) | Papp B→A at 2 h, 10 µM ([1]; Caco-2, Free) | efflux ratio at 2 h, 10 µM ([1]; Caco-2, Free) | Change of Papp A-B in presence of SCE vs Free (Caco-2 monolayer) | Change of Papp B-A in presence of SCE vs Free (Caco-2 monolayer) | Change of efflux ratio in presence of SCE vs Free (Caco-2 monolayer) | PAMPA membrane retention (MR %) [2] | Metabolic Stability [3] | PAMPA Papp [2] | also measured
1 | CSc1nc(NCCc2ccccc2)c2cnn(CC(Cl)c3ccccc3)c2n1 (stereo not drawn) [Cpd 2] | 0.224 ± 0.009 ×10⁻⁶ cm/s | 2.3 ± 0.279 ×10⁻⁶ cm/s | 10.2 ± 0.837 |  | 10.4 ± 0.363 ×10⁻⁶ cm/s | 97.3 ± 4.49 | almost doubled | significant reduction | nine-fold reduction | 42.7% | 96.6% | 3.2 10^−6 cm/s | 
2 | Oc1ccc(Cl)c(Nc2ncnc3c2cnn3CC(Cl)c2ccccc2)c1 (stereo not drawn) [Cpd 3] | 16.3 ± 0.537 ×10⁻⁶ cm/s | 32.5 ± 0.784 ×10⁻⁶ cm/s | 2 ± 0.114 | 1.68 ± 0.061 ×10⁻⁶ cm/s | 4.74 ± 0.097 ×10⁻⁶ cm/s | ~3 | ~10 fold | more interesting implementation | almost halved |  | 86.3% | 4.3 (-) 10^−6 cm/s | 
3 | CC(Cn1ncc2c(Nc3cc(O)ccc3Cl)nc(NCCO)nc21)c1ccccc1 (stereo not drawn) [Cpd 6] | 14.9 ± 1.86 ×10⁻⁶ cm/s | 51.45 ± 0.118 ×10⁻⁶ cm/s | 3.48 ± 0.445 | 3.32 ± 0.041 ×10⁻⁶ cm/s | 19 ± 2.15 ×10⁻⁶ cm/s | 5.71 ± 0.578 | about three and four times | more interesting implementation | almost halved | 4.0% | 97.9% | lower than 1 10^−6 cm/s | 
4 | Cc1nc(Nc2ncc(C(=O)Nc3c(C)cccc3Cl)s2)cc(N2CCN(CCO)CC2)n1 [Dasatinib, dasatinib, reference compound] | 2.41 ± 0.12 ×10⁻⁶ cm/s | 31.1 ± 0.342 ×10⁻⁶ cm/s | 12.9 ± 0.786 | 2.02 ± 0.103 ×10⁻⁶ cm/s | 36.9 ± 2.95 ×10⁻⁶ cm/s | 18.2 ± 0.529 | slight increase | did not show relevant changes | reduced |  |  |  | viability at 10 µM ([4]; 10 µM): 90 to 100%; viability at 100 µM ([4]; 100 µM): 70 to 80%; Cell viability (Caco-2 cells; 1 µM, vs untreated control): no significant signs of toxicity; Bioavailability [5]: 15.2%
5 | CC(C)NCC(O)COc1cccc2ccccc12 (stereo not drawn) [Propranolol, propranolol, reference compound] | 93.1 ± 3.84 ×10⁻⁶ cm/s | 37.2 ± 4.73 ×10⁻⁶ cm/s | 0.399 ± 0.034 | 41.3 ± 4.28 ×10⁻⁶ cm/s | 33.6 ± 0.967 ×10⁻⁶ cm/s |  | doubled | did not show relevant changes | almost halved |  |  |  | Cell viability (Caco-2 cells; 1 µM, vs untreated control): no significant signs of toxicity; Cell viability (Caco-2 cells; 100 µM): high percentages of viable cells; Oral bioavailability / oral absorption (of an oral dose) [6]: around 90%; Papp [7]: higher than 10 × 10^−6 cm/s

The next lines start with results.

Row | Papp A→B at 2 h, 10 µM ([1]; Caco-2, +SCE [1 mg/mL]) | Papp B→A at 2 h, 10 µM ([1]; Caco-2, +SCE [1 mg/mL]) | efflux ratio at 2 h, 10 µM ([1]; Caco-2, +SCE [1 mg/mL]) | Papp A→B at 2 h, 10 µM ([1]; Caco-2, Free) | Papp B→A at 2 h, 10 µM ([1]; Caco-2, Free) | efflux ratio at 2 h, 10 µM ([1]; Caco-2, Free) | Change of Papp A-B in presence of SCE vs Free (Caco-2 monolayer) | Change of Papp B-A in presence of SCE vs Free (Caco-2 monolayer) | Change of efflux ratio in presence of SCE vs Free (Caco-2 monolayer) | Structure (SMILES) | PAMPA membrane retention (MR %) [2] | Metabolic Stability [3] | PAMPA Papp [2] | also measured
6 | 16.167 ± 0.014 ×10⁻⁶ cm/s | 26.8 ± 3.68 ×10⁻⁶ cm/s | 1.66 ± 0.226 | 4.943 ± 0.044 ×10⁻⁶ cm/s | 15.1 ± 1.57 ×10⁻⁶ cm/s | ~3 | about three and four times | more interesting implementation | almost halved | Fc1ccc(C(Cl)Cn2ncc3c(NCc4ccccc4)ncnc32)cc1 (stereo not drawn) [Cpd 1] | 9.2% | 84.2% |  | melting point: 143 to 144 °C
7 | 16.9 ± 0.743 ×10⁻⁶ cm/s | 53.3 ± 1.8 ×10⁻⁶ cm/s | 3.16 ± 0.245 | 5.11 ± 0.385 ×10⁻⁶ cm/s | 34.5 ± 0.817 ×10⁻⁶ cm/s | 6.77 ± 0.351 | about three and four times | more interesting implementation | almost halved | CC(Cn1ncc2c(Nc3cccc(O)c3)nc(NCCO)nc21)c1ccccc1 (stereo not drawn) [Cpd 4] | 1% | 99.4% | lower than 1 10^−6 cm/s | 
8 | 1.54 ± 0.095 ×10⁻⁶ cm/s | 5.99 ± 0.286 ×10⁻⁶ cm/s | 3.88 ± 0.054 | 1.25 ± 0.122 ×10⁻⁶ cm/s | 8.04 ± 0.183 ×10⁻⁶ cm/s | 6.46 ± 0.486 | only a slight improvement | significant reduction | almost halved | CC(Cn1ncc2c(Nc3cc(O)ccc3Cl)nc(SCCN3CCOCC3)nc21)c1ccccc1 (stereo not drawn) [Cpd 5] | 6.6% | 97.9% | over 10 10^−6 cm/s | Caco-2 Papp A-B lower than PAMPA Papp (Caco-2 monolayer; Free): ~10 fold
